Laboratory results taken from US20020028788A1, “Vaginal active agent delivery procedures and formulations thereof” (priority 1998, published 2002).
Marks after values point to notes of the source that are not given here. One block for each compound: values may come before it.

Experiments:
cattle [1] = assay: Follicular dynamics and oestrus following vaginal oestradiol 17β or intramuscular oestradiol benzoate; assay type: in vivo; conditions: for Follicle wave turnover (i.e. DF3) / No follicle wave turnover (i.e. no DF3): number of animals
[2] = Plasma oestradiol concentration and pharmacokinetics following vaginal or intramuscular administration; assay type: in vivo; conditions: cattle, oestradiol benzoate
Protocol: Error bars are standard error means (n=3).
FIG. 2 is a plasma oestradiol concentrations following vaginal administration of 10 mg oestradiol benzoate (open square), 10 mg oestradiol benzoate with 1:1 molar ratio β-cyclodextrin (open diamond), 10 mg oestradiol benzoate with 1:1 molar ratio hydroxypropyl β-cyclodextrin (open circle) or 10 mg oestradiol benzoate with 1:1 molar ratio γ-cyclodextrin (open triangle). Error bars are standard error means (n=4).
Error bars are standard error means (n=4).

cattle [3] = conditions: past attempts; vaginal administration by capsule; doses typically 10 times higher than intra-muscular; cited from earlier work
[4] = 2.5 mg oestradiol 17β, vaginal administration
[5] = 5.0 mg oestradiol 17β, vaginal administration
[6] = 2.5 mg oestradiol 17β, vaginal administration, group n = 8
[7] = 5.0 mg oestradiol 17β, vaginal administration, group n = 8
[8] = 2 mg oestradiol benzoate, intramuscular administration
[9] = 2 mg oestradiol benzoate, intramuscular administration, group n = 7

SMILES: C[C@]12CC[C@@H]3c4ccc(O)cc4CC[C@H]3[C@@H]1CC[C@@H]2O [oestradiol 17β]
Age of ovulatory DF2 (cattle [1]; [4]): 12.0 ± 0.6 ^ d | Age of ovulatory DF3 (cattle [1]; [4]): 6 days | Day DF2 emerged (cattle [1]; [4]): 9.9 ± 0.4^a | Diameter DF2 on Day 13 (cattle [1]; [4]): 9.9 ± 0.5^a mm | Diameter of ovulatory DF2 (cattle [1]; [4]): 15.6 ± 0.7 ^ mm | Diameter of ovulatory DF3 (cattle [1]; [4]): 12 mm | Growth of DF2 from Day 13-17 (cattle [1]; [4]): 2.4 ± 0.6^a mm | Day of oestrus (cattle [1]; 2.5 mg oestradiol 17β, vaginal administration, n = 7): 22.0 ± 0.0 (n = 7) | Age of ovulatory DF2 (cattle [1]; [5]): 11.5 ± 0.5 ^ d | Age of ovulatory DF3 (cattle [1]; [5]): 7.0 ± 0.5^ d | Day DF2 emerged (cattle [1]; [5]): 10.0 ± 0.6^a | Day DF3 emerged (cattle [1]; [5]): 15.7 ± 0.6 ^ | Diameter DF2 on Day 13 (cattle [1]; [5]): 9.3 ± 0.8^a mm | Diameter of ovulatory DF2 (cattle [1]; [5]): 17.0 ± 1.0 ^ mm | Diameter of ovulatory DF3 (cattle [1]; [5]): 13.7 ± 0.7 ^ mm | Growth of DF2 from Day 13-17 (cattle [1]; [5]): 0.9 ± 0.8^ab mm | Day of oestrus (cattle [1]; 5.0 mg oestradiol 17β, vaginal administration, n = 8): 22.0 ± 0.0 (n = 8) | Follicle wave turnover (i.e. DF3) (cattle [1]; [6]): 3 | No follicle wave turnover (i.e. no DF3) (cattle [1]; [6]): 5 | Follicle wave turnover (i.e. DF3) (cattle [1]; [7]): 6 | No follicle wave turnover (i.e. no DF3) (cattle [1]; [7]): 2 | influence on follicular dynamics (cattle [1]; vaginal administration, 5 mg oestradiol 17β and γ-cyclodextrin in molar ratio 0.5:1, compared with i.m. 2 mg oestradiol benzoate): influences follicular dynamics in a similar manner

absorption following vaginal administration [2]: poor and variable absorption
SMILES: C[C@]12CC[C@@H]3c4ccc(OC(=O)c5ccccc5)cc4CC[C@H]3[C@@H]1CC[C@@H]2O [oestradiol benzoate]
Age of ovulatory DF3 (cattle [1]; [8]): 6.0 ± 0.5^ d | Day DF2 emerged (cattle [1]; [8]): 9.6 ± 0.6^a | Day DF3 emerged (cattle [1]; [8]): 17.0 ± 0.4 ^ | Diameter DF2 on Day 13 (cattle [1]; [8]): 9.6 ± 1.0^a mm | Diameter of ovulatory DF3 (cattle [1]; [8]): 14.2 ± 0.4 ^ mm | Growth of DF2 from Day 13-17 (cattle [1]; [8]): −0.6 ± 0.7^b mm | Day of oestrus (cattle [1]; 2 mg oestradiol benzoate, intramuscular administration, n = 7): 22.6 ± 0.2 (n = 7) | Follicle wave turnover (i.e. DF3) (cattle [1]; [9]): 6 | No follicle wave turnover (i.e. no DF3) (cattle [1]; [9]): 1 | oestrus expression and fertility (cattle [3]): poor oestrus expression and poor fertility
